# Experiments:
# MIA PaCa-2 = assay: Anti-proliferation 2D CTG test (MIA PaCa-2); type: cell-based; details: MIAPACA-2 cells, 500 cells/well, 5 days incubation with compound, CTG readout
# Method: (§1) When the cell confluency was 80%, the cells were isolated with 0.25% trypsin. The isolated cells were resuspended in 5 mL of fresh cell culture medium and centrifuged to collect the cells. The number of cells were counted at the same time. Then, the cells were suspended in a culture medium at a moderate concentration. The cells were placed into a 96-well plate with 1500 cells/well for H358 and 500 cells/well for MIAPACA-2. The 96-well plate was placed in an incubator at 37° C. and incubated overnight.
# (§2) 2) Day 1: processing of compound
# (§3) A 2 mM stock solution was serially diluted at 10 points at a ratio of 1:3. 5× culture medium containing the compound was transferred to the corresponding wells of 96 wells. The final peak concentration of the compound was […], and the final concentration of DMSO was 0.5%. The 96-well plate was placed in the incubator at 37° C. and incubated for 5 days.
# (§4) 3) Baseline reading. 4) Day 6: reading of signals
# (§5) A detection reagent (CTG) was added at 50 μL/well, and the signals were read in an Envision instrument.
# (§6) The percentage of inhibition ([…]) at each compound concentration was calculated based on the signals from the HPE and ZPE control wells contained in each assay plate and the fluorescence signals from individual compound wells. The inhibition rate in the ZPE control wells containing the enzyme and substrate was 0%, and the inhibition rate in the HPE control wells only containing the substrate was […]. By testing the compound in terms of numeric concentration and inhibition percentage, the compound concentration required for […] inhibition (IC50) was determined using a four-parameter logarithmic dose-response equation. The endpoint value (IC50) of the reference compound was evaluated in each experiment as a quality control measure. If the endpoint value was within three times the expected value, the experiment was considered acceptable.
# H358 = assay: Anti-proliferation 2D CTG test (H358); type: cell-based; details: H358 cells, 1500 cells/well, 5 days incubation with compound, CTG readout
# Method: as §1, §2, §3, §4, §5, §6
# [1] = Homo sapiens, MIA PaCa-2, 120 h
SMILES,IC50 (MIA PaCa-2; [1]) [nM],"IC50 (H358; Homo sapiens, NCI-H358, 120 h) [nM]",IC50 (MIA PaCa-2) [nM],IC50 (H358) [nM]
"C=CC(=O)N1CCN(c2nc(=O)n3c4nc(c(F)cc24)-c2c(F)cccc2OCC(OC(=O)C(C)C)C(OC(=O)C(C)C)c2ccnc(C(C)C)c2-3)[C@@H](C)C1 (stereo partly drawn) [Example 13, 2^4-((S)-4-acryloyl-2-methylpiperazin-1-yl)-2^6,3^6-difluoro-1^2-isopropyl-2^2-oxo-2^1,2^2-dihydro-4-oxa-2(1,7)-pyrido[2,3-d]pyrimidina-1(3,4)-pyridina-3(1,2)-benzocycloheptane-6,7-diyl di(2-methylpropionate)]",5,5,–,–
"C=CC(=O)N1CCN(c2nc(=O)n3c4nc(c(F)cc24)-c2c(F)cccc2OCC(OC(=O)C2CC2)C(OC(=O)C2CC2)c2ccnc(C(C)C)c2-3)[C@@H](C)C1 (stereo partly drawn) [Example 14, 2^4-((S)-4-acryloyl-2-methylpiperazin-1-yl)-2^6,3^6-difluoro-1^2-isopropyl-2^2-oxo-2^1,2^2-dihydro-4-oxa-2(1,7)-pyrido[2,3-d]pyrimidina-1(3,4)-pyridina-3(1,2)-benzocycloheptane-6,7-diyl dicyclopropanecarboxylate]",9,6,–,–
"C=CC(=O)N1CCN(c2nc(=O)n3c4nc(c(F)cc24)-c2c(F)cccc2OCC(OC(=O)OC(C)(C)C)C(OC(=O)OC(C)(C)C)c2ccnc(C(C)C)c2-3)[C@@H](C)C1 (stereo partly drawn) [Example 15, 2^4-((S)-4-acryloyl-2-methylpiperazin-1-yl)-2^6,3^6-difluoro-1^2-isopropyl-2^2-oxo-2^1,2^2-dihydro-4-oxa-2(1,7)-pyrido[2,3-d]pyrimidina-1(3,4)-pyridina-3(1,2)-benzocycloheptane-6,7-diyl di-tert-butyldi(carbonate)]",10,12,–,–
"C=CC(=O)N1CCN(c2nc(=O)n3c4nc(c(F)cc24)-c2c(F)cccc2OCCC(OC(C)=O)c2ccnc(C(C)C)c2-3)[C@@H](C)C1 (stereo partly drawn) [Example 16, 2^4-((S)-4-acryloyl-2-methylpiperazin-1-yl)-2^6,3^6-difluoro-1^2-isopropyl-2^2-oxo-2^1,2^2-dihydro-4-oxa-2(1,7)-pyrido[2,3-d]pyrimidina-1(3,4)-pyridina-3(1,2)-benzocycloheptane-7-yl acetate]",20,29,–,–
"C=CC(=O)N1CCN(c2nc(=O)n3c4nc(c(F)cc24)-c2c(F)cccc2OCC(OCOC(=O)OC)C(OCOC(=O)OC)c2ccnc(C(C)C)c2-3)[C@@H](C)C1 (stereo partly drawn) [Example 17, ((2^4-((S)-4-acryloyl-2-methylpiperazin-1-yl)-2^6,3^6-difluoro-1^2-isopropyl-2^2-oxo-2^1,2^2-dihydro-4-oxa-2(1,7)-pyrido[2,3-d]pyrimidina-1(3,4)-pyridina-3(1,2)-benzocycloheptane-6,7-diyl)di(oxo))di(methylene) dimethyldi(carbonate)]",9,9,–,–
"C=CC(=O)N1CCN(c2nc(=O)n3c4nc(c(F)cc24)-c2c(F)cccc2OCC(OC(C)=O)C(OC(C)=O)c2ccnc(C(C)C)c2-3)[C@@H](C)C1 (stereo partly drawn) [Example 18, 2^4-((S)-4-acryloyl-2-methylpiperazin-1-yl)-2^6,3^6-difluoro-1^2-isopropyl-2^2-oxo-2^1,2^2-dihydro-4-oxa-2(1,7)-pyrido[2,3-d]pyrimidina-1(3,4)-pyridina-3(1,2)-benzocycloheptane-6,7-diyl diacetate]",6,14,–,–
"C=CC(=O)N1CCN(c2nc(=O)n3c4nc(c(F)cc24)-c2c(F)cccc2OCC(OC(C)=O)C(OC(C)=O)c2ccnc(C(C)C)c2-3)[C@@H](C)C1 (stereo partly drawn) [Example 18-R, (R)-2^4-((S)-4-acryloyl-2-methylpiperazin-1-yl)-2^6,3^6-difluoro-1^2-isopropyl-2^2-oxo-2^1,2^2-dihydro-4-oxa-2(1,7)-pyrido[2,3-d]pyrimidina-1(3,4)-pyridina-3(1,2)-benzocycloheptane-6,7-diyl diacetate]",–,–,15,16
"C=CC(=O)N1CCN(c2nc(=O)n3c4nc(c(F)cc24)-c2c(F)cccc2OCC(OC(C)=O)C(OC(C)=O)c2ccnc(C(C)C)c2-3)[C@@H](C)C1 (stereo partly drawn) [Example 18-S, (S)-2^4-((S)-4-acryloyl-2-methylpiperazin-1-yl)-2^6,3^6-difluoro-1^2-isopropyl-2^2-oxo-2^1,2^2-dihydro-4-oxa-2(1,7)-pyrido[2,3-d]pyrimidina-1(3,4)-pyridina-3(1,2)-benzocycloheptane-6,7-diyl diacetate]",–,–,266,351
"C=CC(=O)N1CCN(c2nc(=O)n3c4nc(c(F)cc24)-c2c(F)cccc2OCC(=O)C(OC(C)=O)c2ccnc(C(C)C)c2-3)[C@@H](C)C1 (stereo partly drawn) [Example 19, 2^4-((S)-4-acryloyl-2-methylpiperazin-1-yl)-2^6,3^6-difluoro-1^2-isopropyl-2^2,6-dioxo-2^1,2^2-dihydro-4-oxa-2(1,7)-pyrido[2,3-d]pyrimidina-1(3,4)-pyridina-3(1,2)-benzocycloheptane-7-yl acetate]",18,18,–,–
"C=CC(=O)N1CCN(c2nc(=O)n3c4nc(c(F)cc24)-c2c(F)cccc2OCC(=O)C(OC(C)=O)c2ccnc(C(C)C)c2-3)[C@@H](C)C1 (stereo partly drawn) [Example 20, (R)-2^4-((S)-4-acryloyl-2-methylpiperazin-1-yl)-2^6,3^6-difluoro-1^2-isopropyl-2^2,6-dioxo-2^1,2^2-dihydro-4-oxa-2(1,7)-pyrido[2,3-d]pyrimidina-(3,4)-pyridina-3(1,2)-benzocycloheptane-7-yl acetate]",–,–,30,25
"C=CC(=O)N1CCN(c2nc(=O)n3c4nc(c(F)cc24)-c2c(F)cccc2OCC(OCC)C(=O)c2ccnc(C(C)C)c2-3)[C@@H](C)C1 (stereo partly drawn) [Example 21, (R)-2^4-((S)-4-acryloyl-2-methylpiperazin-1-yl)-6-ethoxy-2^6,3^6-difluoro-1^2-isopropyl-2^1,2^2-dihydro-4-oxa-2(1,7)-pyrido[2,3-d]pyrimidina-1(3,4)-pyridina-3(1,2)-benzocycloheptane-22,7-dione]",153,60,–,–
C=CC(=O)N1CCN(c2nc(=O)n3c4nc(c(F)cc24)-c2c(F)cccc2OCC(=O)C(OCC)c2ccnc(C(C)C)c2-3)[C@@H](C)C1 (stereo partly shown) [Example 22],7,14,–,–
"C=CC(=O)N1CCN(c2nc(=O)n3c4nc(c(F)cc24)-c2c(F)cccc2OCC(O)C(OC(=O)C(N)C(C)C)c2ccnc(C(C)C)c2-3)C(C)C1 [Example 23, 2^4-((S)-4-acryloyl-2-methylpiperazin-1-yl)-2^6,3^6-difluoro-6-hydroxy-1^2-isopropyl-2^2-oxo-2^1,2^2-dihydro-4-oxa-2(1,7)-pyrido[2,3-d]pyrimidina-1(3,4)-pyridina-3(1,2)-benzocycloheptane-7-yl L-valine ester]",–,–,9,11
"C=CC(=O)N1CCN(c2nc(=O)n3c4nc(c(F)cc24)-c2c(F)cccc2OCC(O)C(OCCF)c2ccnc(C(C)C)c2-3)[C@@H](C)C1 (stereo partly drawn) [Example 24, 2^4-((S)-4-acryloyl-2-methylpiperazin-1-yl)-2^6,3^6-difluoro-7-(2-fluoroethoxy)-6-hydroxy-1^2-isopropyl-2^1,2^2-dihydro-4-oxa-2(1,7)-pyrido[2,3-d]pyrimidina-1(3,4)-pyridina-3(1,2)-benzocycloheptane-2^2-one]",8,17,–,–
"C=CC(=O)N1CCN(c2nc(=O)n3c4nc(c(F)cc24)-c2c(F)cccc2OCC(OCCF)C(O)c2ccnc(C(C)C)c2-3)[C@@H](C)C1 (stereo partly drawn) [Example 25, 2^4-((S)-4-acryloyl-2-methylpiperazin-1-yl)-2^6,3^6-difluoro-6-(2-fluoroethoxy)-7-hydroxy-1^2-isopropyl-2^1,2^2-dihydro-4-oxa-2(1,7)-pyrido[2,3-d]pyrimidina-1(3,4)-pyridina-3(1,2)-benzocycloheptane-2^2-one]",–,–,15,36
"C=CC(=O)N1CCN(c2nc(=O)n3c4nc(c(F)cc24)-c2c(F)cccc2OCC(O)C(OC)c2ccnc(C(C)C)c2-3)[C@@H](C)C1 (stereo partly drawn) [Example 26, 2^4-((S)-4-acryloyl-2-methylpiperazin-1-yl)-7-methoxy-2^6,3^6-difluoro-6-hydroxy-1^2-isopropyl-2^1,2^2-dihydro-4-oxa-2(1,7)-pyrido[2,3-d]pyrimidina-1(3,4)-pyridina-3(1,2)-benzocycloheptane-2^2-one]",–,–,1,2
"C=CC(=O)N1CCN(c2nc(=O)n3c4nc(c(F)cc24)-c2c(F)cccc2OCC(OC)C(O)c2ccnc(C(C)C)c2-3)[C@@H](C)C1 (stereo partly drawn) [Example 27, 24-((S)-4-acryloyl-2-methylpiperazin-1-yl)-6-methoxy-2^6,3^6-difluoro-7-hydroxy-1^2-isopropyl-2^1,2^2-dihydro-4-oxa-2(1,7)-pyrido[2,3-d]pyrimidina-1(3,4)-pyridina-3(1,2)-benzocycloheptane-2^2-one]",4,9,–,–
